Results reported in PubChem BioAssay (NCI).
Where “and” joins values, the source holds several entries; their conditions need not be identical. Equal values may be shown once.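 Protocol summary: plate cells (96-well), add compound at 5 concentrations, incubate 48 h, interpolate endpoints linearly. The concentration for 50% growth inhibition is given as GI50. The concentration for full growth arrest is given as TGI.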

Experiments:
Assay in all cases: growth of human tumour cells (NCI), 48 h
COLO 205 colon = system: COLO 205 colon
EKVX NSCLC = system: EKVX NSCLC
OVCAR-4 ovarian = system: OVCAR-4 ovarian
OVCAR-8 ovarian = system: OVCAR-8 ovarian
SK-MEL-2 melanoma = system: SK-MEL-2 melanoma
SN12C renal = system: SN12C renal
SNB-19 CNS = system: SNB-19 CNS
UO-31 renal = system: UO-31 renal
HS 578T breast = system: HS 578T breast
MDA-MB-435 = system: MDA-MB-435

SMILES	TGI (COLO 205 colon) [µM]	TGI (EKVX NSCLC) [µM]	TGI (OVCAR-4 ovarian) [µM]	TGI (OVCAR-8 ovarian) [µM]	TGI (SK-MEL-2 melanoma)	TGI (SN12C renal) [µM]	TGI (SNB-19 CNS) [µM]	TGI (UO-31 renal) [µM]	GI50 (COLO 205 colon) [µM]	GI50 (EKVX NSCLC)	GI50 (HS 578T breast) [µM]	TGI (HS 578T breast) [µM]	GI50 (OVCAR-4 ovarian) [µM]	GI50 (OVCAR-8 ovarian) [µM]	GI50 (SK-MEL-2 melanoma)	GI50 (SN12C renal) [µM]	GI50 (SNB-19 CNS) [µM]	GI50 (UO-31 renal) [µM]	GI50 (MDA-MB-435) [µM]	TGI (MDA-MB-435)
COc1cc2oc(-c3ccc(O)cc3)cc(=O)c2c(O)c1C1OC(CO)C(O)C(O)C1O (configuration not stated)	> 100	> 100	> 100	> 100	> 100 µM	> 100	> 100	> 100	–	–	–	–	–	–	–	–	–	–	–	–
COc1cc(CNc2nc3cc(N)cc(N)c3nc2-c2ccccc2)cc(OC)c1	6.04	8.91	0.974	8.1	41 µM	> 100	> 100	> 100	2.38	2.8 µM	8.53	> 100	0.014	2.8	7.77 µM	11.4	23.4	4.05	–	–
C[C@]12Cc3cn[nH]c3C(=O)C1CC[C@@H]1C2CC[C@@]2(C)C1CC[C@@H]2O (some centres not stated)	> 100	> 100	> 100	> 100	> 100 µM	> 100	> 100	> 100	–	–	–	–	–	–	–	–	–	–	–	–
CCn1cc(C(=O)O)c(=O)c2cc(F)c(N3CCN(S(=O)(=O)c4cccc5ccccc45)CC3)cc21	3.91	–	> 100	> 100	8.72 µM	> 100	> 100	8.95	2.02	–	2.68	9.88	2.6	3.09	3.55 µM	2.59	3.47	2.21	3.13	14.5 µM
NNC(=O)C(=O)N/N=C1/CCCC1C(=O)CCC(=O)Nc1ccc(Cl)cc1 (configuration not stated)	> 100	> 100	> 100	> 100	> 100 µM	> 100	> 100	> 100	–	–	–	–	–	–	–	–	–	–	–	–
COC(=O)CCC(NC(=S)N/N=C/c1cccs1)C(=O)OC (configuration not stated)	> 100	> 100	> 100	> 100	> 100 µM	> 100	> 100	> 100	–	–	–	–	–	–	–	–	–	–	–	–
O=c1/c(=C/c2ccccc2[N+](=O)[O-])sc2nnc(-c3cccnc3)n12	–	> 100	> 100	> 100	> 100 µM	> 100	32.1	> 100	–	–	–	–	–	–	–	–	–	–	–	–
O=[N+]([O-])c1ccc(Cl)c2c([N+](=O)[O-])cccc12	> 10	> 10	> 10	> 10	> 10 µM	> 10	> 10	–	–	–	–	–	–	–	–	–	–	–	–	9.61 µM
CC1(C)N=C(N)N=C(N)N1c1ccc(CCC(=O)Nc2ccc(S(=O)(=O)F)cc2)cc1	> 100	–	> 100	> 100	> 100 µM	> 100	> 100	> 100	0.922	–	> 75.8	> 100	> 78.5	5.08	26.4 µM	1.59	7.16	34.1	0.461	> 100 µM
COC(=O)/C=C(/C(=O)OC)C1(C)c2cc(C(=O)OC)c(C(=O)OC)c(N)c2C(=N)N1c1ccccc1 (configuration not stated)	29.7	> 100	–	37.9	81.4 µM	48.4	> 100	47.1	–	–	–	–	–	–	–	–	–	–	–	–
N#Cc1nc2c(S(=O)(=O)c3ccc(Cl)cc3)c(N)n(Nc3cccc(Cl)c3)c2nc1C#N	–	–	–	> 100	0.387 µM and 0.0857 µM	–	–	> 100	–	0.0693 µM and 0.0266 µM	–	–	0.0166	–	0.105 µM and 0.0126 µM	0.033	0.137	0.333	0.0497	0.379 µM and 0.067 µM
O=C(NCCNCCO)c1ccc2c(c1)oc1cc3ccccc3c(=O)n12	47.3	> 50	> 50	> 50	44.7 µM	> 50	> 50	> 50	18.9	37.8 µM	–	–	> 50	15.7	12.8 µM	29.1	> 50	16.6	> 50	> 50 µM
CCOC(=O)c1nc(C)oc1C(F)(F)F	> 100	> 100	> 100	> 100	> 100 µM	> 100	> 100	> 100	–	–	–	–	–	–	–	–	–	–	–	–
O=C(Nc1cccc(-n2cc(-c3ccncc3)c(-c3cc(O)cc(Cl)c3)n2)c1)c1ccc(N2CCOCC2)c(C(F)(F)F)c1	64.5	–	> 100	> 100	13.2 µM	> 100	33.6	15.5	17.5	–	2.94	> 100	> 100	1.64	2.34 µM	6.37	3.33	1.41	2.05	> 100 µM
N#CC1c2ccccc2C=CN1C(=O)CCCl (configuration not stated)	5.65	–	10.7	30.6	28 µM	34.9	52.9	7.2	2.48	–	17.4	47.3	2.79	14.4	13.6 µM	15.6	20.1	2.32	12.4	27.1 µM
Cc1ccc(S(=O)(=O)OCC/C(=C\[Si](C)(C)C)c2ccccc2)cc1	> 100	> 100	> 100	> 100	> 100 µM	> 100	> 100	> 100	–	–	–	–	–	–	–	–	–	–	–	–
COc1nc2c(c(O)c(C)c(=O)n2OC2OCC(OC(C)=O)C(OC(C)=O)C2OC(C)=O)c(=O)n1C (configuration not stated)	> 100	> 100	> 100	> 100	> 100 µM	> 100	> 100	> 100	–	–	–	–	–	–	–	–	–	–	–	–
CCc1ccccc1NC(=O)c1cccc([N+](=O)[O-])c1O	31.4	> 100	> 100	> 100	–	> 100	> 100	71.6	–	–	–	–	–	–	–	–	–	–	–	–
O=C(NC1C(=O)NNC1c1cccc([N+](=O)[O-])c1)c1ccccc1 (configuration not stated)	> 100	> 100	> 100	> 100	> 100 µM	> 100	> 100	> 100	–	–	–	–	–	–	–	–	–	–	–	–
